Experimental data from article PMC12595484, “Optimizing multifunctional fluorescent ligands for intracellular labeling” (Proceedings of the National Academy of Sciences of the …, 2025).

Test system: U2OS cells expressing HaloTag–H2B
Assay: Dye loading kinetics
Format: cell-based
Conditions: 200 nM
Protocol: U2OS cell culture, labeling, and fluorescence microscopy. U2OS cells (ATCC) were cultured in Dulbecco's modified Eagle medium (DMEM, phenol red-free; Life Technologies) supplemented with 10% (v/v) fetal bovine serum (FBS, Life Technologies), 1 mM GlutaMAX (Life Technologies) and maintained at 37 °C in a humidified 5% (v/v) CO2 environment. These cell lines undergo regular mycoplasma testing by the Janelia Cell Culture Facility. U2OS cells stably expressing an integrated HaloTag–histone H2B fusion protein (U2OS.H2B.HaloTag) were used for nuclear imaging and imaged 18–24 h post-plating. […]
Fixed cells were then washed
3× in 1× PBS and incubated with Hoechst 33342 (5µg/mL) for 15 min at 22 °C as a nuclear counterstain. Airyscan imaging was performed on a Zeiss LSM 980 with Airyscan 2 confocal microscope using a Plan APO 63×/1.4 oil DIC M27 objective. The same acquisition settings were used for all constructs labeled with 13HTL–16HTL. These single plane images were bulk processed in ZEN Blue (Zeiss) with automatic Airyscan settings.
Dye loading kinetics. Live U2OS.H2B.HaloTag stable cells were labeled over a time course of 0–4 h with 200 nM of biotin-JF549-HaloTag ligand (13HTL), biotin-JF608-HaloTag ligand (14HTL), biotin-JF646-HaloTag ligand (15HTL), or biotin-JF635-HaloTag ligand (16HTL) at 37 °C. Cells were […]
then washed 3× with dye-free media, fixed with 4% paraformaldehyde in 0.1 M phosphate buffer, pH 7.4 for 15 min at 37 °C. Confocal imaging was performed on a Leica SP8 with an HC PL APO CS2 20×/0.75 immersion objective using the tunable white light laser ( WLL) to excite dyes at their λabs in constant power mode. Fluorescence was quantified as the average integrated density of background corrected nuclear signals from confocal image stack projections analyzed in Fiji;14 n = 100 nuclear signals per compound. […]
(IB) consisting of KCl (0.18 M), ethylene glycol-bis(β-aminoethyl ether)-N,N,N′,N′-tetraacetic acid (EGTA; 1 mM), 3-(N-morpholino)propanesulfonic acid (MOPS; 5 mM); the pH was adjusted to pH = 7.35 using KOH(aq).15 StrepTactin Microbeads (IBA Lifesciences, 6-5510-050) were used as capture reagents as these beads had lowest amount of background observed in our hands. […]
The post-bead supernatant and wash volumes were pooled and spun at 15,000 g for 12 min. […] The affinity capture pulldown efficiency was monitored using in-gel fluorescence. The msGFP signal from HaloTag-TEV-4×GS-msGFP-mito after cell lysis and SDS-PAGE was analyzed, in-gel, using a Bio-Rad Chemidoc MP imager (Bio-Rad) through GFP fluorescence excitation and emission filters. Data were quantified by densitometry using Fiji.14 Capture efficiency was […]

Compound: O=C(CCCCC1SCC2NC(=O)NC21)NCCOCCOCCNC(=O)C1C[N+](=c2ccc3c(-c4cc(C(=O)NCCOCCOCCCCCCCl)ccc4C(=O)[O-])c4ccc(N5CCC5)cc4oc-3c2)C1 (stereo not shown) [13HTL, biotin–JF549–HaloTag ligand]
- intracellular labeling over 4 h: negligible intracellular labeling

Compound: C[Si]1(C)C2=CC(=[N+]3CC(C(=O)NCCOCCOCCNC(=O)CCCC[C@@H]4SC[C@@H]5NC(=O)N[C@@H]54)C3)C=CC2=C(c2cc(C(=O)NCCOCCOCCCCCCCl)ccc2C(=O)[O-])c2ccc(N3CCC3)cc21 (stereo partly shown) [15HTL, biotin–JF646–HaloTag ligand]
- time to maximal intensity: 1 h

Compound: CC1(C)C2=CC(=[N+]3CC(C(=O)NCCOCCOCCNC(=O)CCCC[C@@H]4SC[C@@H]5NC(=O)N[C@@H]54)C3)C=CC2=C(c2cc(C(=O)NCCOCCOCCCCCCCl)ccc2C(=O)[O-])c2ccc(N3CCC3)cc21 (stereo partly shown) [14HTL, biotin–JF608–HaloTag ligand]
- time to maximal intensity: 4 h

Compound: C[Si]1(C)C2=CC(=[N+]3CC(F)(C(=O)NCCOCCOCCNC(=O)CCCC[C@@H]4SC[C@@H]5NC(=O)N[C@@H]54)C3)C=CC2=C(c2cc(C(=O)NCCOCCOCCCCCCCl)ccc2C(=O)[O-])c2ccc(N3CC(F)C3)cc21 (stereo partly shown) [16HTL, biotin–JF635–HaloTag ligand]
- time to maximal intensity: 1 h
